Assay results as given in paper PMC3615092, “Identification, Design and Bio-Evaluation of Novel Hsp90 Inhibitors by Ligand-Based Virtual Screening” (PLoS ONE, 2013).

Legend:
[1] = target: T1, Hsp90 (Homo sapiens, UniProt P07900); experiment: Malachite green assay of Hsp90 ATPase activity; format: biochemical
T1 construct: The region encoding full-length Hsp90 was subcloned into pET28a; inferred from the pET28a vector and Ni-NTA purification; made in house; host or cells: E. coli
Experimental: The region encoding full-length Hsp90 was subcloned into pET28a. Protein expression in E. coli cells were induced with 0.5 mM IPTG. Cells were harvested after 20h of growth at 16°C and then disrupted by sonication. The soluble lysate was clarified by centrifugation and applied to a Ni^2+-nitrilo-triacetic acid (NTA) agarose column in a buffer (50 mM Tris-Cl, 300 mM NaCl, 10 mM Imidazole, 10% [v/v] Glycerol, 10 mM PMSF, 10 mM DTT). Hsp90 Protein was eluted with a linear gradient of 20–1000 mM imidazole. Hsp90 was identified by SDS-PAGE, and the high concentrated fraction was dialyzed against ATPase buffer (20 mM Tris-Cl, pH 7.5; 6 mM MgCl2; 20 mM KCl) and then aliquoted, frozen in liquid nitrogen, stored at −80°C.
The test compounds were diluted from mother plates (10 mM in 100% (v/v) DMSO) into daughter plates (200 μM in 2.0% (v/v) DMSO); 5 μL of test compound solution was added to each well (equivalent to a final concentration of 40 μM) of the 96-well assay plate. The first and last rows of the 96-well plate contained the appropriate concentration of DMSO were used as blank control. ATP was dissolved in the assay buffer to give a stock concentration of 2.5 mM and stored at room temperature. A 10 μL aliquot of ATP solution was added to each well to give a final assay concentration of 1 mM. Before the usage, Hsp90 protein was thawed on ice and suspended in chilled assay buffer to a stock concentration of 0.45 mg/mL, and the solution was kept on ice. The incubation was started by adding 10 μL of the stock Hsp90 to each well (except for the background wells which received 10 μL of assay buffer), giving a final assay volume of 25 μL. The plates were shaken for approximately 2 min and incubated for 3 h at 37°C.
The assay procedures were based on the literatures [33]–[35]. […] The reagent is initially dark brown, but on standing for ∼2 h at room temperature changes to a golden yellow and is ready for use. The assay buffer was 100 mM Tris–HCl, 20 mM KCl, 6 mM MgCl2, pH 7.4.
To stop the ATPase reactions, 80 μL of the malachite green reagent was added to each well.

[2] = system: MDA-MB-231; experiment: Anti-proliferation MTT assay; format: cell-based
Experimental: (§1) Cell viabilities were measured by a colorimetric assay using 3-(4, 5-dimethylthiaz-ol-2-yl)-2,5-diphenyltetrazoliumbromide (MTT, Sigma, Ltd.) as described previously. Experiments were carried out in triplicate in a parallel manner for each concentration of target compounds and the results were presented as mean ± SE. Control cells were given only culture media. After incubation for 48 h, absorbance (A) was measured at 570 nm. Survival ratio (%) was calculated using the following equation: survival ratio (%) = (Atreatment/Acontrol) × 100%.

[3] = system: MCF-7; experiment: Anti-proliferation MTT assay; format: cell-based
Experimental: as §1

[4] = system: A549; experiment: Anti-proliferation MTT assay; format: cell-based
Experimental: as §1

[5] = system: SK-BR-3; experiment: Anti-proliferation MTT assay; format: cell-based
Experimental: as §1

[6] = system: HepG2; experiment: Anti-proliferation MTT assay; format: cell-based
Experimental: as §1

[7] = system: HCT116; experiment: Anti-proliferation MTT assay; format: cell-based
Experimental: as §1

[8] = target: T2, Hsp70 (Homo sapiens, UniProt P0DMV8); experiment: Hsp70 ATPase activity assay (ADP Hunter Plus); format: biochemical
T2 construct: purchased Enzo Life science ALX-201-214-C025
T2 sequence (P0DMV8 whole entry): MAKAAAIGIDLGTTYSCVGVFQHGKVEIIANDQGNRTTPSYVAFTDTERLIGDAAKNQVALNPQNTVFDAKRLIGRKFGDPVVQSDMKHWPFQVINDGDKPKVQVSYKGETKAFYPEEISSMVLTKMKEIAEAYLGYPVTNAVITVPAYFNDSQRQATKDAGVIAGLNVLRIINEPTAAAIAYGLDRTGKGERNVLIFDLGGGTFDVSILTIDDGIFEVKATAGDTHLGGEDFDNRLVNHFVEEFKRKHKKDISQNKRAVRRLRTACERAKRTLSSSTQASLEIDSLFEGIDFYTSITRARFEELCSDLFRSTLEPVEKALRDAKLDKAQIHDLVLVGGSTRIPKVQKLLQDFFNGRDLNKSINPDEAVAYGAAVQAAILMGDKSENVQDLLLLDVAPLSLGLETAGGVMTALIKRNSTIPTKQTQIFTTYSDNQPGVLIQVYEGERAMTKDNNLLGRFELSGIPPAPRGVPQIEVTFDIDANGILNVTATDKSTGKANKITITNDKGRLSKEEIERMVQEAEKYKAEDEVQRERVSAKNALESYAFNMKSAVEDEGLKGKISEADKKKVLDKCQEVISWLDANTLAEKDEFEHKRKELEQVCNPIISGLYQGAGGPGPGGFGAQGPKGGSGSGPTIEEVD
Text: The following materials were used for the biological evaluation: The PET-28a HSP90 expression vector was constructed. The Ni^2+-nitrilo-triacetic acid (NTA) agarose was purchased from General Electric (USA). […] Isopropyl-1-thio-d-galactopyranoside (IPTG) was purchased from Sigma (St. Lousi. MO). Antibodies of β-Actin, Hsp70, Hsp90, c-Raf, Akt, Src, Phospho-Src, ERK and Her-2 were purchased from Cell Signaling Technology (Danvers, MA). Anti-p-Akt(S473) was purchased from Signalway Antibody (Baltimore, MD). HIF-1α antibody was purchased from R&D systems. The stock solution of Hsp90 was prepared in a 20 mM Tris-Cl buffer with a pH 7.4, and concentration was fixed at 5.0 μM. […] The screened out compounds were purchased from SPECS and dissolved in DMSO (Sigma, St. Louis, MO) to make a final concentration of 10^−2 mol/L and were stored at −20°C. […] The water used in the experiments was thrice-distilled and all other materials were of analytical reagent grade.
Hsp70 ATPase activity was measured using Discover RX ADP Hunter^TM Plus Assay kit assay as descripted in the manufacturer's instructions. Breifly, Hsp70 (3 μM) was incubated with 1 mM ATP in 100 mM Tris pH 7.4 at 37°C for 3 h in the presence or absence of various concentrations of test compounds. ADP generation was measured using Varioskan multimode microplate spectrophotometer (540 nm excitation and 620 nm emission). Fluorescence intensity values measured for Hsp70 without any testing compound was assumed as 100% of enzyme activity. The background reaction rate was measured in a reaction lacking enzyme or substrate and subtracted from the experimental rates.

[9] = target: T1, Hsp90; experiment: ATP hydrolysis inhibition, ADP Hunter Plus (ADP fluorescence) assay; format: biochemical; conditions: by ADP fluorescence assay
Experimental: The first and last rows of the 96-well plate contained the appropriate concentration of DMSO were used as blank control. ATP was dissolved in the assay buffer to give a stock concentration of 2.5 mM and stored at room temperature. A 10 μL aliquot of ATP solution was added to each well to give a final assay concentration of 1 mM. Before the usage, Hsp90 protein was thawed on ice and suspended in chilled assay buffer to a stock concentration of 0.45 mg/mL, and the solution was kept on ice. […] The plates were shaken for approximately 2 min and incubated for 3 h at 37°C. The Discover RX ADP Hunter^TM Plus Assay kit (Discoverx, Fremont, CA) was used following the manufacturer's instructions. ATPase reactions were carried out after 3 h at 37°C temperature in presence of different concentrations of compounds. ADP generation was measured using Varioskan multimode microplate spectrophotometer (540 nm excitation and 620 nm emission). […] The background reaction rate was measured in a reaction lacking enzyme or substrate and subtracted from the experimental rates.

| SMILES | Inhibition rate (% in 40 μM) ([1]; 40 μM, colorimetric assay for inorganic phosphate) [%] | IC50 ([2]; 48 h) [nM] | IC50 ([3]; 48 h) [nM] | IC50 ([4]; 48 h) [nM] | IC50 ([5]; 48 h) [nM] | IC50 ([6]; 48 h) [nM] | IC50 ([7]; 48 h) [nM] | IC50 ([8]; ADP Hunter Plus assay) [nM] | selectivity HSP90 over HSP70 ([8]; ratio of IC50 HSP70 / HSP90, ADP fluorescence assay) | IC50 [9] [nM] | inhibition at 40 µM ([1]; 40 μM, colorimetric assay for inorganic phosphate, read-out: Inhibition rate (% in 40 μM)) [%] | IC50 ([1]; by malachite green assay) [nM] | IC50 ([2]; Homo sapiens, MDA-MB-231, 48 h) [nM] | IC50 ([3]; Homo sapiens, MCF7, 48 h) [nM] | IC50 ([4]; Homo sapiens, A549, 48 h) [nM] | IC50 ([5]; Homo sapiens, SK-BR-3, 48 h) [nM] | IC50 ([6]; Homo sapiens, HepG2, 48 h) [nM] | IC50 ([7]; Homo sapiens, HCT-116, 48 h) [nM] |
| --- | --- | --- | --- | --- | --- | --- | --- | --- | --- | --- | --- | --- | --- | --- | --- | --- | --- | --- |
| CO[C@H]1/C=C\C=C(/C)C(=O)NC2=CC(=O)C(NCCN(C)C)=C(C[C@@H](C)C[C@H](OC)[C@H](O)[C@@H](C)/C=C(\C)[C@@H]1OC(N)=O)C2=O [Compound 17-DMAG, 17-Dimethylamino-ethylamino-17-demethoxygeldanamycin] | 90 | 48 | 37 | 57 | 1210 | 490 | 260 |  |  |  |  |  |  |  |  |  |  |  |
| CN(C)S(=O)(=O)N1CCN(CC(O)COc2ccc3cc(Br)ccc3c2)CC1 (stereo not drawn) [Compound S1] |  |  |  |  |  |  |  | 28200 ± 2270 | over 15 times | 1610 | > 50 | 2440 ± 330 | 2270 | 3790 | 25900 | 15800 | 2270 | 4660 |
